Earlier results as cited in paper PMC6650409, “Modeling the binding of diverse ligands within the Ah receptor ligand binding domain” (Scientific Reports, 2019).

Legend:
[1] = system: zebrafish AhR1a (zfAhR1a); settings: cited from earlier work
[2] = system: AhR; parameters: method as in PMID 21981577; settings: in words; cited from earlier work
[3] = target: T1, mAhR (Mus musculus, UniProt P30561); parameters: method as in PMID 21981577; settings: in words; cited from earlier work
T1 construct: made in house; host or cells: in vitro, Promega TNT Quick coupled transcription/translation rabbit reticulocyte lysate
T1 sequence (P30561 10-848): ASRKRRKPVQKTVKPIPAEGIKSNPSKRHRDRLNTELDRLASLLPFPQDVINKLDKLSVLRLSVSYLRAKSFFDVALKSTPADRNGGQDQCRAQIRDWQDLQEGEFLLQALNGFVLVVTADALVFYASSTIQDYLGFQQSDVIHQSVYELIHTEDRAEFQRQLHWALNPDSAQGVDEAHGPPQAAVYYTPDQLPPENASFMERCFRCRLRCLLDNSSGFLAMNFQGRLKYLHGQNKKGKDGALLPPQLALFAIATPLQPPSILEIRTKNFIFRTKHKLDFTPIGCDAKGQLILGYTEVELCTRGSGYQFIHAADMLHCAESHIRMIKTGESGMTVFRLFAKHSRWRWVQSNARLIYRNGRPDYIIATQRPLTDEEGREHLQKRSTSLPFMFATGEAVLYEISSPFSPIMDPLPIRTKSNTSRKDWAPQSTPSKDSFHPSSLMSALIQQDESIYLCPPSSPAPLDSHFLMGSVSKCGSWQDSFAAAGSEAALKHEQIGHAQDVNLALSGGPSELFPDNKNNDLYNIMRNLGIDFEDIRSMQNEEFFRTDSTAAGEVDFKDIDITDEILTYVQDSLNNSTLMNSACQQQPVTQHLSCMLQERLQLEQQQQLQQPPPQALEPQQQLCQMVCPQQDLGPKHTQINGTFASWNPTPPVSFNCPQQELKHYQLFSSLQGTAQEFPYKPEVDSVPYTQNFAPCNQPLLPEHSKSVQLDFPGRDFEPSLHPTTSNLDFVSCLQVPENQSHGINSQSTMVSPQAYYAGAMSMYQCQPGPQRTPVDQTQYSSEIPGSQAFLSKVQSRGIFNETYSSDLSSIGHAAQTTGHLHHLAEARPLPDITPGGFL

Row | SMILES | ligand binding to zfAhR1a [1] | AhR agonist activity [2] | displacement of [3H]TCDD specific binding to the mAhR [3]
1 | Cc1oncc1C(=O)Nc1ccc(C(F)(F)F)cc1 [LEFL, Leflunomide] | could still bind and be activated |  | 
2 | O=[N+]([O-])c1cc(C(F)(F)F)ccc1NCc1ccsc1 [THS-017] |  | acted as AhR agonists | could competitively displace
3 | O=[N+]([O-])c1cc(C(F)(F)F)ccc1NCc1ccco1 [THS-020] |  | acted as AhR agonists | could competitively displace
